Laboratory results: US20140235776A1, “AMINOALCOHOL COMPOUNDS AND THEIR USE AS ZERO OR LOW VOC ADDITIVES FOR PAINTS AND COATINGS” (ANGUS CHEMICAL COMPANY, priority 2011, published 2014)
Like-named read-outs stand apart in the source and are kept apart here.

Experiments:
Type in all cases: physicochemical
[1] = VOC testing according to ASTM D6886-rev (gas chromatography); conditions: neutralizer in a finished paint formulation, GC conditions of Table 2
Protocol: VOC properties are tested according to the ASTM D6886-rev method.

[2] = pKa of neutralizing amines
[3] = pH of paint formulation (digital pH meter); conditions: for pH: Zero VOC Flat Formulation, vinyl acrylic latex; for pH, 1 day 25° C.: Zero VOC Semi Gloss Formulation, acrylic latex
Protocol: pH, Low Shear and High Shear Viscosity.
The pH of each formulation is measured with a digital pH meter with a glass combination pH probe. Krebs-units (KU) viscosity is measured with Brookfield model KU viscometer with digital display (ASTM D562), at 25° C.

[4] = Krebs-units (KU) low shear viscosity of paint, ASTM D562
Protocol: (§1) The pH of each formulation is measured with a digital pH meter with a glass combination pH probe. Krebs-units (KU) viscosity is measured with Brookfield model KU viscometer with digital display (ASTM D562), at 25° C. The high shear (“ICI”) viscosity is measured according to ASTM D 4287 using a Brookfield CAP 1000+ viscometer at a shear rate of 12,000 s^−1 at 900 rpm, with a 0.45° cone of radius 1.511 cm, and a sample temperature controlled at 25° C.

[5] = High shear (ICI) viscosity of paint, ASTM D 4287; conditions: in P (unit assumed)
Protocol: as §1

[6] = Freeze-thaw cycles of paint samples, viscosity by Krebs Stormer Viscometer; conditions: for Viscosity after Freeze-Thaw cycles (KU), 2nd cycle / Viscosity after Freeze-Thaw cycles (KU), 3rd cycle / Viscosity after Freeze-Thaw cycles (KU), 4th cycle / Viscosity after Freeze-Thaw cycles (KU), 5th cycle / Viscosity after Freeze-Thaw cycles (KU), 1st cycle: additive 2 wt %; for Initial Viscosity (KU): additive 2 wt % post-add in paint of Table 8, before freeze-thaw; for Viscosity after Freeze-Thaw cycles (KU), 1st cycle: cycle = −18° C. 17 hours, 25° C. 7 hours; for freeze-thaw survival of paint sample (in words): added as post-add, 2 wt %
Protocol: Preparation of paint formulations containing compounds of the invention: The paint formulations are prepared using F/T agent 1 and 2 as shown by structures below. The octanol water partition coefficients are calculated for these compounds using the method of Moriguchi et al., Chem. Pharm. Bull. 40(1), 127-130 (1992). The calculated octanol-water partition coefficients for F/T-1 and F/T-2 are −2.59, and −3.99, respectively. […] Paint samples are frozen at −18° C. for 17 hours and then thawed at 25° C. for 7 hours. This constitutes 1 complete freeze-thaw cycle. Viscosities are measured after each freeze-thaw cycle using a Krebs Stormer Viscometer from Sheen at room temperature. The viscosity is measured in Krebs unit (KU). The results of freeze-thaw cycles on paint samples that contain zero-VOC compounds of the invention as post-adds are listed in the Table 9. The post-add compounds are mixed at 2 wt % in the paint samples. The same paint formulation is used in preparing all the samples. The paint sample without any post-add is designated as “Blank.”
The KU values below 150 as reported in Table 9 are considered acceptable, and all the values (other than that for the Blank) reported are considered very acceptable.

[7] = read-out: pKa (first value, pK1)
[8] = read-out: pKa (second value, pK2)
[9] = Zero VOC Semi Gloss Formulation

| Structure (SMILES) | VOC contributed by neutralizers [1] | pKa [2, 7] | pKa [2, 8] | Viscosity after Freeze-Thaw cycles (KU), 2nd cycle [6] | Viscosity after Freeze-Thaw cycles (KU), 3rd cycle [6] | Viscosity after Freeze-Thaw cycles (KU), 4th cycle [6] | Viscosity after Freeze-Thaw cycles (KU), 5th cycle [6] | Initial Viscosity (KU) [6] | Viscosity after Freeze-Thaw cycles (KU), 1st cycle [6] | other results |
| --- | --- | --- | --- | --- | --- | --- | --- | --- | --- | --- |
| CC(C)(N)CNCCOCCOCCNCC(C)(C)N [EDBDA bis-AMP, N1,N1′-((ethane-1,2-diylbis(oxy))bis(ethane-2,1-diyl))bis(2-methylpropane-1,2-diamine), reference compound] | 0%^2 | 9.7 | 5.8 |  |  |  |  |  |  |  |
| CC(O)CNCCNCCN(CCNCC(C)O)CC(C)O (centres unmarked) [TETA 3PO, 7-(2-hydroxypropyl)-4,7,10,13-tetraazahexadecane-2,15-diol] |  |  |  |  |  |  |  |  |  | pH [3]: 8.51; pH, 1 day 25° C. [3]: 9.46; KU Viscosity, 1 day 25° C. ([4]; Zero VOC Flat Formulation): 92.8 KU; KU Viscosity, 1 day 25° C. [4, 9]: 85.9 KU; ICI Viscosity, 1 day 25° C. ([5]; Zero VOC Flat Formulation): 1.29; ICI Viscosity, 1 day 25° C. [5, 9]: 1.018 |
| CC(O)CO (centres unmarked) [Propylene Glycol, propylene glycol, reference compound] |  |  |  | 103.2 KU | 115.1 KU | 99.4 KU | 98.2 KU | 89.8 KU | 101.3 KU |  |
| OCC(O)CN(CCN(CC(O)CO)CC(O)CO)CCN(CC(O)CO)CC(O)CO (centres unmarked) [F/T Agent 2, 3,3′,3″,3′′′-((((2,3-dihydroxypropyl)azanediyl)bis(ethane-2,1-diyl))bis(azanetriyl))tetrakis(propane-1,2-diol)] |  |  |  | 113.1 KU | 114 KU | 121.7 KU | 116.3 KU | 88.2 KU | 110.4 KU | freeze-thaw survival of paint sample (in words) [6]: survive five freeze-thaw cycles |
| OCCOCCO [Diethylene Glycol, diethylene glycol, reference compound] |  |  |  | 105.1 KU | 106.9 KU | 100.6 KU | 98 KU | 91.0 KU | 101.1 KU |  |
| OCC(O)CNCCN(CCNCC(O)CO)CC(O)CO (centres unmarked) [DETA Glyc, 3,3′-((((2,3-dihydroxypropyl)azanediyl)bis(ethane-2,1-diyl))bis(azanediyl))bis(propane-1,2-diol)] | 0%^2 | 8.9 | 4.6 |  |  |  |  |  |  |  |
| [Na+].[OH-] [NaOH, sodium hydroxide, reference compound] |  |  |  |  |  |  |  |  |  | pH [3]: 8.56; pH, 1 day 25° C. [3]: 9.47; KU Viscosity, 1 day 25° C. ([4]; Zero VOC Flat Formulation): 86 KU; KU Viscosity, 1 day 25° C. [4, 9]: 89.1 KU; ICI Viscosity, 1 day 25° C. ([5]; Zero VOC Flat Formulation): 1.184; ICI Viscosity, 1 day 25° C. [5, 9]: 1.059 |
| CC(O)CNCCN(CCNCCN(CCNCC(C)O)CC(C)O)CC(C)O (centres unmarked) [TEPA 4PO, 7,13-bis(2-hydroxypropyl)-4,7,10,13,16-pentaazanonadecane-2,18-diol] | 0%^2 | 8.7 | 4.8 |  |  |  |  |  |  |  |
| OCC(O)CNCCN(CCNCC(O)CO)CC(O)CO (centres unmarked) [F/T Agent 1, 3,3′-((((2,3-dihydroxypropyl)azanediyl)bis(ethane-2,1-diyl))bis(azanediyl))bis(propane-1,2-diol)] |  |  |  | 111.1 KU | 112.7 KU | 111.8 KU | 109.5 KU | 89.5 KU | 108 KU | freeze-thaw survival of paint sample (in words) [6]: survive five freeze-thaw cycles |
